Test results published in the supplement of paper PMC10307832.

These cell lines were tested with Cn1cnc2c(F)c(Nc3ccc(Br)cc3Cl)c(C(=O)NOCCO)cc21 [Selumetinib] + Nc1ncn([C@H]2C[C@H](O)[C@@H](CO)O2)c(=O)n1 [Decitabine] (partner 2 µM) (assay: relative viability (nuclei count vs DMSO), 5 days (fraction); higher = more cells survive). Conditions: first compound 0.02 µM.
In short: (§1)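 For relative viability, nuclei counts in treated wells were divided by those in vehicle wells. Lung cancer cell lines had been pin-tool dosed in 1536-well plates the day after seeding and cultured for 5 days, then fixed and stained in one step (final 0.05% Triton X-100, 1% formaldehyde, 1 ug/ml Hoechst) and imaged at 4×. Doses were one drug alone or a fixed anchor-drug dose plus five library-drug doses (not always all listed) in √10 steps, and values are duplicate-plate medians.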

Point of comparison: NCI-H2342, relative viability 0.778. Against it:
- NCI-H2023 — lower, 0.232
- SK-MES-1 — lower, 0.416
- COR-L23 — lower, 0.438
- COR-L 105 — lower, 0.637
- A549 — lower, 0.305
- SW 900 — lower, 0.43
- NCI-H520 — lower, 0.551
- NCI-H661 — lower, 0.572
- NCI-H1650 — lower, 0.392
- NCI-H2009 — lower, 0.354
- SW 1573 — lower, 0.505
- SK-LU-1 — higher, 0.793

Same assay, conditions: first compound 0.06325 µM

Point of comparison: NCI-H1648, relative viability 0.447. Against it:
- NCI-H522 — higher, 0.585
- PC-14 — lower, 0.2
- NCI-H2023 — lower, 0.211
- NCI-H2342 — higher, 0.716
- SK-MES-1 — lower, 0.307
- COR-L23 — lower, 0.418
- COR-L 105 — higher, 0.507
- A549 — lower, 0.227
- SW 900 — lower, 0.409
- NCI-H520 — higher, 0.493
- NCI-H661 — higher, 0.492
- NCI-H1650 — lower, 0.353
- NCI-H2009 — lower, 0.292
- SW 1573 — lower, 0.369
- SK-LU-1 — higher, 0.65

Same assay, conditions: first compound 0.2 µM

Point of comparison: NCI-H520, relative viability 0.523. Against it:
- NCI-H522 — higher, 0.692
- PC-14 — lower, 0.227
- NCI-H2023 — lower, 0.209
- NCI-H2342 — higher, 0.727
- SK-MES-1 — lower, 0.356
- COR-L23 — lower, 0.451
- COR-L 105 — lower, 0.452
- A549 — lower, 0.198
- SW 900 — lower, 0.441
- NCI-H1648 — lower, 0.477
- NCI-H661 — higher, 0.546
- NCI-H1650 — lower, 0.424
- NCI-H2009 — lower, 0.35
- SW 1573 — lower, 0.384
- SK-LU-1 — higher, 0.572

Same assay, conditions: first compound 0.6325 µM

Point of comparison: SW 1573, relative viability 0.373. Against it:
- NCI-H522 — higher, 0.7
- PC-14 — lower, 0.179
- NCI-H2023 — lower, 0.247
- NCI-H2342 — higher, 0.638
- SK-MES-1 — lower, 0.323
- COR-L23 — higher, 0.444
- COR-L 105 — higher, 0.45
- A549 — lower, 0.267
- SW 900 — higher, 0.504
- NCI-H1648 — higher, 0.673
- NCI-H520 — higher, 0.606
- NCI-H661 — higher, 0.51
- NCI-H1650 — higher, 0.39
- NCI-H2009 — lower, 0.279
- SK-LU-1 — higher, 0.438

What follows are cell lines tested with Cn1cnc2c(F)c(Nc3ccc(Br)cc3Cl)c(C(=O)NOCCO)cc21 [Selumetinib] + CS(=O)(=O)N1CCN(Cc2cc3nc(-c4cccc5[nH]ncc45)nc(N4CCOCC4)c3s2)CC1 [Pictilisib] (partner 1 µM) in the same assay as above. Conditions: first compound 0.02 µM.
In short: as §1

Point of comparison: Calu-6, relative viability 0.931. Against it:
- PC-14 — lower, 0.723
- EBC-1 — lower, 0.259
- NCI-H2023 — lower, 0.211
- NCI-H2228 — lower, 0.247
- SK-MES-1 — lower, 0.324
- COR-L23 — lower, 0.84
- COR-L 105 — lower, 0.342
- IA-LM — lower, 0.144
